Experimental data from patent US12433865B2, “Compositions comprising PGI2-receptor agonists and processes for the preparation thereof” (Arena Pharmaceuticals, Inc., priority 2018, dated 2025).

Assay: Release (dissolution) profile of capsules, USP Apparatus 2 (paddle)
Type: physicochemical
Excerpt: USP Apparatus 2 (Paddle Apparatus) is described, for example, in the United States Pharmacopeial Convention, Feb. 1, 2012, Chapter <711> (“Dissolution”), incorporated by reference herein in its entirety. See http://www.usp.org/sites/default/files/usp_pdf/EN/USPNF/revisions/m99470-gc_711.pdf. The assembly from Apparatus 1 is used, except that a paddle formed from a blade and a shaft is used as the stirring element. The shaft is positioned so that its axis is not more than 2 mm from the vertical axis of the vessel at any point and rotates smoothly without significant wobble that could affect the results. The vertical center line of the blade passes through the axis of the shaft so that the bottom of the blade is flush with the bottom of the shaft. A distance of 25±2 mm between the bottom of the blade and the inside bottom of the vessel is maintained during the test. The metallic or suitably inert, rigid blade and shaft comprise a single entity. A suitable two-part detachable design may be used provided the assembly remains firmly engaged during the test. The paddle blade and shaft may be coated with a suitable coating so as to make them inert. The dosage unit is allowed to sink to the bottom of the vessel before rotation of the blade is started. A small, loose piece of nonreactive material, such as not more than a few turns of wire helix, may be attached to dosage units that would otherwise float. Other validated sinker devices may be used.
Unless otherwise specified, the release profiles for capsules were measured using USP Apparatus 2 (paddle).
All release profiles disclosed in Tables 3c-3p were measured with USP Apparatus 2 (paddle) at 50 rpm in 500 mL of aqueous sodium phosphate at a concentration of 0.05 M (pH=6.8). The values in a given table relate to capsules obtained from the same batch. Values shown represent mean values over a number of dissolution tests (“n” in each table) in each case.

O=C(O)COC[C@H]1CC[C@H](COC(=O)N(c2ccccc2)c2ccc(Cl)cc2)CC1 [Compound 1, 2-(((1r,4r)-4-(((4-chlorophenyl)(phenyl)carbamoyloxy)methyl)cyclohexyl)methoxy)acetic acid]
mean value (n = 6) of % of Compound 1 released (Table 3k: size 4 capsule, 0.03 mg Compound 1, Poloxamer 188:food grade GMS 50:50, 360 min): 91.4% | mean value (n = 6) of % of Compound 1 released (Table 3k: size 4 capsule, 0.03 mg Compound 1, Poloxamer 188:food grade GMS 50:50, 480 min): 98.3% | mean value (n = 4) of % of Compound 1 released (Table 3l: size 4 capsule, 0.5 mg Compound 1, Poloxamer 188:food grade GMS 50:50, 30 min): 9.9% | mean value (n = 4) of % of Compound 1 released (Table 3l: size 4 capsule, 0.5 mg Compound 1, Poloxamer 188:food grade GMS 50:50, 60 min): 22.2% | mean value (n = 4) of % of Compound 1 released (Table 3l: size 4 capsule, 0.5 mg Compound 1, Poloxamer 188:food grade GMS 50:50, 120 min): 42.9% | mean value (n = 4) of % of Compound 1 released (Table 3l: size 4 capsule, 0.5 mg Compound 1, Poloxamer 188:food grade GMS 50:50, 180 min): 61.5% | mean value (n = 4) of % of Compound 1 released (Table 3l: size 4 capsule, 0.5 mg Compound 1, Poloxamer 188:food grade GMS 50:50, 240 min): 76.9% | mean value (n = 4) of % of Compound 1 released (Table 3l: size 4 capsule, 0.5 mg Compound 1, Poloxamer 188:food grade GMS 50:50, 360 min): 92.2% | mean value (n = 4) of % of Compound 1 released (Table 3l: size 4 capsule, 0.5 mg Compound 1, Poloxamer 188:food grade GMS 50:50, 480 min): 96.7% | mean value (n = 6) of % of Compound 1 released (Table 3m: size 4 capsule, 0.03 mg Compound 1, Poloxamer 188:food grade GMS 30:70, 60 min): 15.3% | mean value (n = 6) of % of Compound 1 released (Table 3m: size 4 capsule, 0.03 mg Compound 1, Poloxamer 188:food grade GMS 30:70, 120 min): 27.4% | mean value (n = 6) of % of Compound 1 released (Table 3m: size 4 capsule, 0.03 mg Compound 1, Poloxamer 188:food grade GMS 30:70, 180 min): 38.4% | mean value (n = 6) of % of Compound 1 released (Table 3m: size 4 capsule, 0.03 mg Compound 1, Poloxamer 188:food grade GMS 30:70, 240 min): 49.0% | mean value (n = 6) of % of Compound 1 released (Table 3m: size 4 capsule, 0.03 mg Compound 1, Poloxamer 188:food grade GMS 30:70, 360 min): 70.1% | mean value (n = 6) of % of Compound 1 released (Table 3m: size 4 capsule, 0.03 mg Compound 1, Poloxamer 188:food grade GMS 30:70, 480 min): 85.9% | mean value (n = 6) of % of Compound 1 released (Table 3m: size 4 capsule, 0.03 mg Compound 1, Poloxamer 188:food grade GMS 30:70, 600 min): 93.5% | mean value (n = 6) of % of Compound 1 released (Table 3m: size 4 capsule, 0.03 mg Compound 1, Poloxamer 188:food grade GMS 30:70, 720 min): 97.6% | mean value (n = 6) of % of Compound 1 released (Table 3m: size 4 capsule, 0.03 mg Compound 1, Poloxamer 188:food grade GMS 30:70, 840 min): 99.0% | mean value (n = 4) of % of Compound 1 released (Table 3n: size 4 capsule, 0.5 mg Compound 1, Poloxamer 188:food grade GMS 30:70, 30 min): 7.9% | mean value (n = 4) of % of Compound 1 released (Table 3n: size 4 capsule, 0.5 mg Compound 1, Poloxamer 188:food grade GMS 30:70, 60 min): 15.5% | mean value (n = 4) of % of Compound 1 released (Table 3n: size 4 capsule, 0.5 mg Compound 1, Poloxamer 188:food grade GMS 30:70, 120 min): 26.9% | mean value (n = 4) of % of Compound 1 released (Table 3n: size 4 capsule, 0.5 mg Compound 1, Poloxamer 188:food grade GMS 30:70, 180 min): 37.9% | mean value (n = 4) of % of Compound 1 released (Table 3n: size 4 capsule, 0.5 mg Compound 1, Poloxamer 188:food grade GMS 30:70, 240 min): 48.8% | mean value (n = 4) of % of Compound 1 released (Table 3n: size 4 capsule, 0.5 mg Compound 1, Poloxamer 188:food grade GMS 30:70, 360 min): 68.7% | mean value (n = 4) of % of Compound 1 released (Table 3n: size 4 capsule, 0.5 mg Compound 1, Poloxamer 188:food grade GMS 30:70, 480 min): 83.4% | mean value (n = 4) of % of Compound 1 released (Table 3n: size 4 capsule, 0.5 mg Compound 1, Poloxamer 188:food grade GMS 30:70, 600 min): 90.6% | mean value (n = 4) of % of Compound 1 released (Table 3n: size 4 capsule, 0.5 mg Compound 1, Poloxamer 188:food grade GMS 30:70, 720 min): 94.7% | mean value (n = 4) of % of Compound 1 released (Table 3n: size 4 capsule, 0.5 mg Compound 1, Poloxamer 188:food grade GMS 30:70, 735 min): 95.7% | mean value (n = 4) of % of Compound 1 released (Table 3o: size 4 capsule, 0.5 mg Compound 1, Poloxamer 188:food grade GMS 30:70, 30 min): 5.6% | mean value (n = 4) of % of Compound 1 released (Table 3o: size 4 capsule, 0.5 mg Compound 1, Poloxamer 188:food grade GMS 30:70, 60 min): 13.3% | mean value (n = 4) of % of Compound 1 released (Table 3o: size 4 capsule, 0.5 mg Compound 1, Poloxamer 188:food grade GMS 30:70, 120 min): 25.5% | mean value (n = 4) of % of Compound 1 released (Table 3o: size 4 capsule, 0.5 mg Compound 1, Poloxamer 188:food grade GMS 30:70, 180 min): 37.7% | mean value (n = 4) of % of Compound 1 released (Table 3o: size 4 capsule, 0.5 mg Compound 1, Poloxamer 188:food grade GMS 30:70, 240 min): 49.7% | mean value (n = 4) of % of Compound 1 released (Table 3o: size 4 capsule, 0.5 mg Compound 1, Poloxamer 188:food grade GMS 30:70, 360 min): 71.2% | mean value (n = 4) of % of Compound 1 released (Table 3o: size 4 capsule, 0.5 mg Compound 1, Poloxamer 188:food grade GMS 30:70, 480 min): 84.0% | mean value (n = 4) of % of Compound 1 released (Table 3o: size 4 capsule, 0.5 mg Compound 1, Poloxamer 188:food grade GMS 30:70, 600 min): 89.7% | mean value (n = 4) of % of Compound 1 released (Table 3o: size 4 capsule, 0.5 mg Compound 1, Poloxamer 188:food grade GMS 30:70, 720 min): 93.1% | mean value (n = 4) of % of Compound 1 released (Table 3o: size 4 capsule, 0.5 mg Compound 1, Poloxamer 188:food grade GMS 30:70, 735 min): 94.8% | mean value (n = 4) of % of Compound 1 released (Table 3p: size 4 capsule, 0.5 mg Compound 1, Poloxamer 188:food grade GMS 30:70, 30 min): 7.3% | mean value (n = 4) of % of Compound 1 released (Table 3p: size 4 capsule, 0.5 mg Compound 1, Poloxamer 188:food grade GMS 30:70, 60 min): 14.3% | mean value (n = 4) of % of Compound 1 released (Table 3p: size 4 capsule, 0.5 mg Compound 1, Poloxamer 188:food grade GMS 30:70, 120 min): 26.1% | mean value (n = 4) of % of Compound 1 released (Table 3p: size 4 capsule, 0.5 mg Compound 1, Poloxamer 188:food grade GMS 30:70, 180 min): 38.5% | mean value (n = 4) of % of Compound 1 released (Table 3p: size 4 capsule, 0.5 mg Compound 1, Poloxamer 188:food grade GMS 30:70, 240 min): 51.1% | mean value (n = 4) of % of Compound 1 released (Table 3p: size 4 capsule, 0.5 mg Compound 1, Poloxamer 188:food grade GMS 30:70, 360 min): 74.3% | mean value (n = 4) of % of Compound 1 released (Table 3p: size 4 capsule, 0.5 mg Compound 1, Poloxamer 188:food grade GMS 30:70, 480 min): 87.0% | mean value (n = 4) of % of Compound 1 released (Table 3p: size 4 capsule, 0.5 mg Compound 1, Poloxamer 188:food grade GMS 30:70, 600 min): 92.3% | mean value (n = 4) of % of Compound 1 released (Table 3p: size 4 capsule, 0.5 mg Compound 1, Poloxamer 188:food grade GMS 30:70, 720 min): 95.0%
